Each structure is given as a SMILES string.

The subject of this data set is Rattus norvegicus.
Setting [1] is: subchronic, duration: 13 weeks, oral, gavage.
[2] abbreviates: subchronic, duration: 90 days, clinical chemistry.
[3] abbreviates: subchronic, duration: 90 days, oral, diet, M/F, Wistar, no effects.

A word on the NOAEL: it is the highest tested level that showed no adverse finding. For the compound `O=C1CCc2ccccc2O1` [3,4-Dihydrocoumarin], the NOAEL is, setting by setting: (chronic, duration: 2 years, oral, gavage) 300 mg/kg-day; (subchronic, duration: 13 weeks) 150 mg/kg-day; (subchronic, duration: 13 weeks, hematological) 150 mg/kg-day.
Consider `CC1=NCCS1` [Thiazole, 4,5-dihydro-2-methyl-], for which the NOAEL by setting is: (subchronic, duration: 90 days) 1.8 mg/kg-day; (subchronic, duration: 90 days, oral, diet, M/F, no effects) 1.8 mg/kg-day.
On to `CC1SCCSS1` (stereo not given) [1,2,4-Trithiane, 3-methyl-], for which the NOEL (subchronic, duration: 13 weeks, oral, diet) came to 0.3 mg/kg-day.
`C/C=C/C=C/C(=O)O` [2E,4E-Hexadienoic acid] returned an NOAEL (reproduction developmental, oral, gavage, M/F, Crj:CD, body weight) of 300 mg/kg-day.
Under setting [1], `CCCSSSCCC` [Dipropyl trisulfide] yielded an NOEL of 4.8 mg/kg-day.
For `COc1ccc(C=CC(=O)NCCc2ccc(OC)c(OC)c2)cc1OC`, the no observed adverse effect level (NOAEL) (subchronic, duration: 90 days, oral, diet, M/F, Sprague-Dawley, hematological) was determined as 23 mg/kg-day.
Turning to `Cc1c(C)c2c(c(C)c1OC(=O)CCC(=O)O)CC[C@@](C)(CCC[C@H](C)CCC[C@H](C)CCCC(C)C)O2` [d-alpha-Tocopheryl succinate], the NOAEL under setting [2] was 265 mg/kg-day.
In the case of `Clc1ccc(-c2ccc(Cl)c(Cl)c2Cl)c(Cl)c1Cl` [2,2',3,3',4,4'-Hexachlorobiphenyl], under setting [2], the NOAEL was 0.8 mg/kg-day.
As to `COc1cccc(OC)c1` [1,3-Dimethoxybenzene], for the setting “subchronic, duration: 90 days, oral, no effects”, the no observed adverse effect level (NOAEL) amounted to 10 mg/kg-day.
In turn, `CCC[CH2][Sn]([CH2]CCC)([CH2]CCC)[O][Sn]([CH2]CCC)([CH2]CCC)[CH2]CCC` [Bis(tributyltin)oxide] displayed a no observed adverse effect level (NOAEL) (chronic, duration: 2 years, oral, diet, M/F, Wistar, histopathology: neoplastic) of 0.025 mg/kg-day.
For the setting “chronic, duration: 92 days”, `C=C=CC(C)C(=O)OCC` (stereo not given) [3,4-Pentadienoic acid, 2-methyl-, ethyl ester] gave an NOAEL of 1 mg/kg-day.
Where the note is “subchronic, duration: 13 weeks, oral, diet, M/F, Sprague-Dawley, clinical chemistry”, `CC(/C=C/C=C(C)/C=C/C(=O)[O-])=C\C=C\C=C(C)\C=C\C=C(C)\C=C\C(=O)[O-].[K+].[K+]` [Dipotassium 6,6'-diapo-psi,psi-carotenedioate] showed a no observed adverse effect level (NOAEL) of 30 mg/kg-day.
In the case of `CC(C)(C)c1ccc(OP(Oc2ccc(C(C)(C)C)cc2C(C)(C)C)Oc2ccc(C(C)(C)C)cc2C(C)(C)C)c(C(C)(C)C)c1` [Tris(2,4-di-tert-butylphenyl) phosphite], the NOAEL (chronic, duration: 2 years, oral, no effects) came out at 58 mg/kg-day.
With `CCNC(=O)C1CC(C)CCC1C(C)C` (stereo not given) [N-Ethyl-2-(isopropyl)-5-methylcyclohexanecarboxamide], the NOEL (short-term, duration: 28 days, oral, gavage, M/F, Crj:CD) is 8 mg/kg-day.
In the case of `CC(C)[C@@H]1CC[C@@H](C)C[C@@H]1NC(=O)C1CC1`, the NOAEL (subchronic, duration: 90 days, oral, diet, M/F, Sprague-Dawley, body weight) was found to be 147 mg/kg-day.
As for `CCCCCO` [1-Pentanol], the NOAEL (subchronic, duration: 90 days, oral, gavage, no effects) stood at 1000 mg/kg-day.
`CCOC(C)(C)C` [Ethyl t-butyl ether]: the no-observed-adverse-effect level (NOAEL) (chronic, duration: 6 months, oral, gavage, M/F, Sprague-Dawley, organ weight) was found to be 100 mg/kg-day.
Take `C=C(C)C1CC=C(C)CC1` (stereo not given) [Limonene]: for the setting “chronic, duration: 103 weeks, oral, gavage, F, mortality”, the no observed adverse effect level (NOAEL) came to 215 mg/kg-day. The same compound showed an NOEL (subchronic, duration: 13 weeks, histopathology: nonneoplastic) of 10 mg/kg-day.
For the compound `O=C(O)c1cc(O)c(O)c(O)c1` [Gallic acid], the no observed adverse effect level (NOAEL) (subchronic, duration: 13 weeks, oral, M/F, organ weight) came out at 119 mg/kg-day.
Consider `NCCS(=O)(=O)O` [l-Taurine], for which the no-observed-adverse-effect level (NOAEL) (subchronic, duration: 13 weeks, oral, gavage, M/F, Crj:CD, no effects) turned out to be 1000 mg/kg-day.
`Cc1cccc(C)c1N(Cn1cccn1)C(=O)CCl` [Metazachlor] yielded an NOAEL (chronic, duration: 2 years, organ weight) of 8.5 mg/kg-day; an NOAEL (developmental, development) of 50 mg/kg-day; a no observed adverse effect level (NOAEL) (subchronic, duration: 90 days, oral, organ weight) of 21 mg/kg-day.
What is called LOAEL is the lowest dose or exposure tested at which an adverse effect was seen. Compound `C=CCN=C=S` [Allyl isothiocyanate] returned an LOAEL (chronic, duration: 103 weeks, oral, gavage, M, histopathology: nonneoplastic) of 9 mg/kg-day. The NOAEL (chronic, duration: 721 days, oral, gavage, M/F, histopathology: neoplastic) was 12 mg/kg-day.
For the compound `CC(=O)c1ccc[nH]1` [2-Acetylpyrrole], the no observed adverse effect level (NOAEL) stood at 0.048 mg/kg-day (subchronic, duration: 90 days, oral, M/F, Sprague-Dawley, histopathology: neoplastic); 48 mg/kg-day (subchronic, duration: 90 days, oral, diet, M/F, Sprague-Dawley, histopathology: nonneoplastic); 48 mg/kg-day (subchronic, duration: 90 days, oral, gavage, M, hematological).
In the case of `CCOC(=O)c1ccc(O)cc1` [Ethylparaben], under “subchronic, duration: 8 weeks, M, Wistar, no effects”, the NOAEL is 1040 mg/kg-day.
The compound `CSSc1cc(C)oc1C` [2,5-Dimethyl-3-(methyldisulfanyl)furan] gave a no observed adverse effect level (NOAEL) under setting [3] of 5 mg/kg-day.
In turn, `CC(=O)SCc1ccco1` [S-Furfuryl thioacetate] yielded a no-observed-adverse-effect level (NOAEL) (subchronic, duration: 90 days, oral, gavage, M/F, body weight) of 3 mg/kg-day.
`CCCCCCCCCCCC(=O)N[C@@H](CCCN=C(N)N)C(=O)OCC` [N alpha-Lauroyl-L-arginine ethyl ester] gave an NOAEL (subchronic, duration: 13 weeks, oral, M/F, Sprague-Dawley, clinical chemistry) of 47 mg/kg-day.
Where the note is “subchronic, duration: 13 weeks, oral, no effects”, `CC1=C[C@H](O)CC(C)(C)[C@H]1/C=C/C(C)=C/C=C/C(C)=C/C=C/C=C(C)/C=C/C=C(C)/C=C/C1=C(C)C[C@@H](O)CC1(C)C` [Lutein A] yielded an LEL of 260 mg/kg-day. The compound further came in with an NOAEL under setting [3] of 200 mg/kg-day.
Compound `CSCc1ccccc1` [Benzyl methyl sulfide] gave an NOAEL (subchronic, duration: 90 days, oral) of 0.43 mg/kg-day.
In turn, `CC(O)c1ccccc1` (stereo not drawn) [alpha-Methylbenzyl alcohol] yielded an LOAEL under setting [1] of 93 mg/kg-day.

The values are drawn from EPA's ToxValDB 9.5.
